Reference: patent EP0478235A2, “A directed biosynthesis for an immunomycin derivative” (MERCK & CO. INC., priority 1990, dated 1992)

System: T lymphocytes
Experiment: T-cell proliferation assay (tritiated thymidine incorporation, ionomycin + PMA stimulation)
Type: cell-based, C57B1/6 mice
Settings: T-lymphocyte
Method: Purified compound, or fractions, prepared by HPLC, was dissolved in absolute ethanol at a final concentration of 100 µg/ml.
Spleens from C57B1/6 mice were taken under sterile conditions and gently dissociated in ice-cold RPMI 1640 culture medium (GIBCO, Grand Island, N. Y.) supplemented with 10% heat-inactivated fetal calf serum (GIBCO). Cells were pelleted by centrifugation at 1500 rpm for 8 minutes. Contaminating red cells were removed by treating the pellet with ammonium chloride lysing buffer (GIBCO) for 2 minutes at 4°C. Cold medium was added and cells were again centrifuged at 1500 rpm for 8 minutes. T lymphocytes were then isolated by separation of the cell suspension on nylon wool columns as follows: Nylon wool columns were prepared by packing approximately 4 grams of washed and dried nylon wool into 20 ml plastic syringes. The columns were sterilized by autoclaving at 250°F for 30 minutes. Nylon wool columns were wetted with warm (37°C) culture medium and rinsed with the same medium. Washed spleen cells resuspended in warm medium were slowly applied to the nylon wool. The columns were then incubated in an upright position at 37°C for 1 hour. Non-adherent T lymphocytes were eluted from the columns with warm culture medium and the cell suspensions were spun as above.
Purified T lymphocytes were resuspended at […] in complete culture medium composed of RPMI 1640 medium with 10% heat-inactivated fetal calf serum, […], 1mM sodium pyruvate, 2 x 10⁻⁵M 2-mercaptoethanol and 50 µg/ml gentamycin. Ionomycin was added at 250 ng/ml and PMA at 10 ng/ml. The cell suspension was immediately distributed into 96 well flat-bottom microculture plates (Costar) at 200 µl/well. The control, being the medium without test drug, and various below-indicated dilutions of the sample (above-described purified prolylimmunomycin) to be tested were then added in triplicate wells at 20 µl/well. FK-520 was used as a standard. The culture plates were then incubated at 37°C in a humidified atmosphere of 5% CO₂-95% air for 44 hours. The proliferation of T lymphocytes was assessed by measurement of tritiated thymidine incorporation. After 44 hours of culturing, the cells were pulse-labelled with 2 µCi/well of tritiated thymidine (NEN, Cambridge, MA). After another 4 hours of incubation, cultures were harvested on glass fiber filters using a multiple sample harvester. Radioactivity of filter discs corresponding to individual wells as measured by standard liquid scintillation counting methods (Betacounter). Mean counts per minute of replicate wells were calculated and the results expressed as percent inhibition of tritiated thymidine uptake (profileration) as follows: Inhibition = 100 -(Mean cpm sample tested X 100.)/(Mean cpm control medium) [formula]

Compound | inhibition at 0.004 µg/mL (Mus musculus, 4 ng/ml, standard) | inhibition at 0.0019 µg/mL (1.9 ng/ml, mouse T cell cultures pulsed with 3H-thymidine for 4 hours prior to harvesting at 48 hours) | inhibition at 0.0039 µg/mL (3.9 ng/ml, mouse T cell cultures pulsed with 3H-thymidine for 4 hours prior to harvesting at 48 hours) | inhibition at 0.0078 µg/mL (7.8 ng/ml, mouse T cell cultures pulsed with 3H-thymidine for 4 hours prior to harvesting at 48 hours) | inhibition at 0.0155 µg/mL (15.5 ng/ml, mouse T cell cultures pulsed with 3H-thymidine for 4 hours prior to harvesting at 48 hours) | inhibition at 0.031 µg/mL (31.0 ng/ml, mouse T cell cultures pulsed with 3H-thymidine for 4 hours prior to harvesting at 48 hours) | inhibition at 0.062 µg/mL (62.0 ng/ml, mouse T cell cultures pulsed with 3H-thymidine for 4 hours prior to harvesting at 48 hours)
CC[C@@H]1/C=C(\C)C[C@H](C)C[C@H](OC)[C@H]2O[C@@](O)(C(=O)C(=O)N3CCCC[C@H]3C(=O)O[C@H](/C(C)=C/[C@@H]3CC[C@@H](O)[C@H](OC)C3)[C@H](C)[C@@H](O)CC1=O)[C@H](C)C[C@@H]2OC [FK-520, immunomycin] | 99% | – | – | – | – | – | –
CC[C@@H]1/C=C(\C)C[C@H](C)C[C@H](OC)[C@H]2O[C@@](O)(C(=O)C(=O)N3CCC[C@H]3C(=O)O[C@H](/C(C)=C/[C@@H]3CC[C@@H](O)[C@H](OC)C3)[C@H](C)[C@@H](O)CC1=O)[C@H](C)C[C@@H]2OC [Prolyl-Immunomycin, prolyl-immunomycin] | – | 8.2% | 47% | 84.8% | 94.3% | 96.3% | 97.8%
